This is an account of results in patent US8614103B2, “Compositions and methods for treating sphingosine-1-phosphate (S1P) related ocular diseases and conditions” (Lpath, Inc., priority 2006, dated 2013).

The test system of assay [1] is human retinal pigmented epithelial cells. Nature of the assay: α-SMA expression in retinal pigmented epithelial cells. The assay is classed as cell-based. The following applies: back to basal levels at 10 μM. From the text: (§1) In many of these disorders, circulating growth factors and chemokines promote the transformation of normal ocular cells into fibrocontractile, scar tissue-producing cells that have been termed “myofibroblasts”. Normally, myofibroblasts are responsible for tissue repair as part of the wound healing response following injury. However altered number and function of myofibroblasts are implicated in diseases characterized by pathological scar tissue formation in the liver, skin, lung, kidney, heart and eyes. In the eye, transformation of retinal pigmented epithelial (RPE) cells to a myofibroblast phenotype is linked to formation of fibro-contractile membranes which cause retinal detachment and subsequent vision impairment. In addition, myofibroblast transformation of ocular fibroblasts can result in abnormal scar tissue production after eye injury leading to subsequent vision loss. Although many of the circulating protein factors in the eye that promote myofibroblast formation have been identified, nothing is known regarding the role of lysolipids such as S1P in this process. Therefore, we examined the effects of S1P on myofibroblast transformation of several human ocular cell lines.
(§2) In these experiments, the ability of S1P to promote α-SMA expression differed in a concentration dependent manner between the retinal pigmented epithelial cells and conjunctiva fibroblasts. […]

Assay [2] concerns human conjunctiva fibroblasts. Nature of the assay: PAI-1 expression in conjunctiva fibroblasts. In kind it is cell-based. The text has this: Collagen is one of the primary structural proteins that supports all tissues in the body and is one of the main components of scar tissue. In the non-pathological setting, total collagen content within tissue is maintained via a balance between collagen production by fibroblasts and degradation by certain enzymes. A number of disorders that involve increased levels of scar tissue result, in part, from physiological and molecular processes that inhibit degradation of collagen that is need for scar formation. It was hypothesized that the ability of S1P to promote scar tissue formation may result from its ability to inhibit collagen degradation, thereby leading to net increases in scar tissue within organs. Therefore, the effects of S1P on expression of plasminogen activator inhibitor (PAI-1) in human conjunctiva fibroblasts were examined.

Assay [3] deals with human conjunctiva fibroblasts. Nature of the assay: α-SMA expression in conjunctiva fibroblasts. The assay is classed as cell-based. The following applies: only at this concentration.
Text: as §1, §2

The subject of another assay is COLO 205 tumor. Nature of the assay: SC COLO205 colorectal tumor xenograft in nude NCr mice. As to conditions: LT1009 50 mg/kg ip q3d; Avastin 40 mg/kg iv q7d; Paclitaxel 15 mg/kg iv q1d×5. In kind it is in vivo, mouse. Here is the method: Nude mice were implanted sc near the right flank with one fragment per mouse of COLO 205 tumor from an in vivo passage. All treatments were initiated the day when 60 mice in each experiment established tumors ranging in size from approximately 100 to 200 mm3. […] Avastin was administered iv at a dosage of 40 mg/kg/dose on a q7d schedule, injected in a volume of 0.1 mL/20 g body weight. Paclitaxel (positive control), was administered iv at a dosage of 15 mg/kg/dose on a q1d×5 schedule, injected in a volume of 0.1 mL/10 g body weight.
(§3) Animals were observed daily for mortality. Tumor dimensions and body weights were collected twice weekly starting with the first day of treatment and including the day of study termination. When the median tumor in the vehicle-treated control group in each study reached approximately 4,000 mg, the study was terminated. Tumors from each animal were harvested, wet weights were recorded, tumors were processed for determination of microvascular densities (MVD) by CD-31 staining. Tumor weights (mg) were calculated using the equation for an ellipsoid sphere (l×w^2)/2=mm^3, where l and w refer to the larger and smaller dimensions collected at each measurement and assuming unit density (1 mm^3=1 mg).

A further assay deals with HT29 tumor. Nature of the assay: SC HT29 colorectal tumor xenograft in nude NCr mice. In kind it is in vivo, mouse. As to conditions: LT1009 50 mg/kg ip q2d; Avastin 20 mg/kg q4d; 5-FU 75 mg/kg q4d. Here is the method:
Nude mice were implanted sc near the right flank with one fragment per mouse of HT29 tumor from an in vivo passage. All treatments were initiated the day when 60 mice in each experiment established tumors ranging in size from approximately 100 to 200 mm^3. There were ten mice per treatment group. […] 75 mg/kg 5-FU and 20 mg/kg Avastin were administered ip and iv at a dosage of 75 mg/kg/dose and 20 mg/kg/dose, respectively, q4d, injected in a volume of 0.1 mL/10 g body weight.
as §3, with “recorded, and” for “recorded,”, “MVD” for “microvascular densities (MVD)”

Another assay concerns DU145 tumor. Nature of the assay: SC DU145 prostate tumor xenograft in nude NCr mice. In kind it is in vivo, mouse. The following applies: LT1009 50 mg/kg ip q2d; Avastin 20 mg/kg q4d; Paclitaxel 7.5 mg/kg q1d×5. As to the method:
Nude mice were implanted sc near the right flank with one fragment per mouse of DU145 tumor from an in vivo passage. All treatments were initiated the day when 60 mice in each experiment established tumors ranging in size from approximately 100 to 200 mm^3. […] Paclitaxel and Avastin were administered iv and ip at a dosage of 7.5 mg/kg/dose and 20 mg/kg/dose, q1d×5 and q4d, respectively, injected in a volume of 0.1 mL/10 g body weight.
During the course of the study tumor growth was monitored by measuring the sc tumors on three axes and calculating the volume. At the end of the study final tumor weights and volumes were determined and then the mice were sacrificed, the tumors harvested. Microvascular densities (MVD) of the tumors were then determined by CD-31 staining.

For `CCCCCCCCCCCCC/C=C/[C@@H](O)[C@@H](N)COP(=O)(O)O` [S1P, sphingosine-1-phosphate], the “concentration at which a significant increase in α-SMA expression was observed” value in assay [1] worked out at 0.001 µM; in assay [3], 10 µM. For the same compound, the PAI-1 expression entry in assay [2] was “stimulates the PAI-1 expression in a dose-dependent manner”.

On to “Avastin: anti-angiogenic drug, bevacizumab (Avastin®, Genentech)”, for which the “Final Tumor Weights” value with COLO 205 tumor was 1967.90 mg; in the assay on HT29 tumor, 1927.44 mg; in the assay with DU145 tumor, 578 mg. Besides, the “% Reduction compared to Vehicle-Treated Mice” value in the assay on HT29 tumor turned out to be 30%.
